Measured values as given in patent US20120122966A1, “USE OF ORGANIC DYES AS ANALGESIC AGENTS” (priority 2009, published 2012).

How the values were obtained:
Type in all cases: in vivo, human
[1] = tested on: bladder cancer, metastases in pelvic bones, pain; test: Example 3: patient L., bladder cancer with pelvic bone metastases, treated with malachite green oxalate
Method: Patient one. Diagnosis: bladder cancer. Metastases in pelvic bones. Three years ago bladderectomy was performed for cancer. Complaints of pain, bloody urine, frequent urination and pelvic bone pains. In CT, a 2×2×2 cm tumor-like mass in the projection of the mouth of the right ureter and a 1.5×1.1×0.9 cm in the projection of the mouth of the left ureter. In the wing of the left illium two tumor-like masses with irregular contours, 1.5 to 2.5 cm in diameter. Medium severity condition, skin integument pallor, blood in urine. […] Began treatment with the preparation—20 drops of a 1% solution of malachite green oxalate in half a glass of water by mouth and in the form of microclysters. […] The course had lasted for 4 months. […] Biphosphonates were prescribed for replacement therapy.

[2] = tested on: metastasizing melanoma of the right forearm, metastases to the liver, pain; test: Example 4: patient D., metastasizing melanoma, treated with malachite green oxalate
Method: Patient three. Diagnosis: metastasizing melanoma of the right forearm. Metastases to the liver and right eye. Three years ago melanoma resection was performed. A year and a half later gripes appeared in the right eye. Eye enucleation for metastasis was performed. In the examination of the internal organs, a 4×5×4 cm metastasis in the liver was detected. At the same time, relapse in the surgery area appeared. Complaints of severe pain in the liver and pain in the relapse area. Objectively: medium severity condition, skin integument pallor, a purple tumor-like mass on the right forearm with a 4×5×5 cm pronounced edema. […] Began treatment with the preparation according to the following regimen: 5 ml of a 0.000001% sterile solution of malachite green oxalate was injected under the tumor base. Later, a 2% ointment with the same preparation was applied to the skin surface. Two times a day, 500 mg of malachite green oxalate diluted in 500 ml of saline was administered intravenously. Also, 5 g of malachite green oxalate was diluted in water and administered by mouth, as well as in the form of microclysters. […] The course had continued for 3 months.

migraine = test: Example 8: patient O., migraine; conditions: third day; 2 g in 100 ml of water on an empty stomach two times a day
Method: Patient five.
Complaints of periodic excruciating pain in the right temporal area. Diagnosis: migraine. Prescribed treatment: malachite green oxalate preparation, 2 g dissolved in 100 ml of water on an empty stomach two times a day.

[3] = tested on: renal cell carcinoma, lung and bone metastases, excruciating bone pain; test: Example 2: patient T., renal cell carcinoma with lung and bone metastases, bone pain, treated with crystal violet
Method: Patient four. Three years ago, the left kidney was removed, and preventive chemotherapy was administered for renal cell carcinoma. In a CT examination, a 2.5×2.4×2.3 cm tumor-like mass in the right kidney projection, three round tumor-like masses from 2.6 to 2.3 cm in diameter in the left lung, and numerous bone metastases. Grave condition, dyspnea, cyanosis, […]. Complaints of excruciating bone pain. […] Treatment prescribed, including the use of an antitumor medicinal preparation. The preparation, crystal violet, was administered by mouth as a potion-16 drops of a 1% solution three times a day, and as microclysters. After 7 days of treatment, dyspnea abated, and the pain syndrome disappeared. Blood tests against the background of treatment have normalized over 3 weeks. Then, the course was repeated using crystal violet preparation which was administered into rectum in the form of 1% suppositories and by inhaling, for 12 months with half-month long breaks. During the therapy the right kidney tumor and lung metastases disappeared. No pain. Weight restored.

[4] = tested on: pancreas head blastoma, pain; test: Example 5: patient Z., pancreas head blastoma with neck lymph node metastases, pain, treated with gentian violet
Source text: Patient two. […] Started chemotherapy. After three weeks the condition began rapidly deteriorating, accompanied by extreme weight loss—from 95 kg to 72 kg. Pain became considerably more severe. Stomach pain occurs before having a meal, i.e. after having a meal the pain is lower. At the same time stool was lightly yellow—very light color. The patient had been taking an analgesic—ketanol—infrequently, but lately has been taking it two times a day. […] Immediately after the end of the first course of phthorafurum the patient began taking gentian violet preparation, 3 mg per 50 kg of weight two times a day.

osteoarthrosis pain = test: Example 7: patient T., osteoarthrosis with joint deformation, permanent pain
Method: Patient four. Complaints of not being able to raise their right arm above the shoulder level. In CT, effects of osteoarthrosis with joint deformation were noticed. Taking analgesic preparations turned out to be ineffective. Pain became permanent. Gentian violet preparation was prescribed, 0.0004 mg/kg of weight once a day.

[5] = tested on: poorly differentiated pulmonary adenocarcinoma, MTS to the brain and skeleton bones, pain syndrome; test: Example 1: patient V., pulmonary adenocarcinoma with MTS, pain syndrome, treated with gentian violet
Method: Patient six. Diagnosis: poorly differentiated pulmonary adenocarcinoma. MTS [expansion not given; possibly metastases] to the brain and skeleton bones. Cachexia. Pain syndrome. Relatives state that over the last two months the patient has been receiving 5.0 ml of heroin intravenously three times a day. Otherwise, they note resumption of pronounced excruciating pain. In CT, several tumor-like masses in the mediastinum and left lung, average size 3.9×3.6×3.2 cm. Grave condition, dyspnea, cyanosis, adynamia, and sensations of pain, getting stronger when coughing. Treatment was prescribed that included the use of medicinal preparations with antineoplastic action—an organic dye, a 1% gentian violet solution. The first course of treatment using the preparation—15 drops of a 1% solution in a glass of water three times a day by mouth, additionally a microclyster—10 drops of a 1% solution in 30 ml of water at lunch, and q.h.s. a 1% suppository with the preparation. […] On the third week of treatment with the preparation the patient's condition improved. […] The lung tumor size dropped to 2.1×2.2×2.2 cm. After six months of treatment the tumor size dropped to 0.3×0.4×1.0 cm. […] Blood tests against the background of treatment have normalized.

Question: Which results are given for malachite green oxalate?
Answer: bladder tumor and pelvic metastases ([1]; complete course of 6 months): disappeared; return of pain ([1]; complete course of 6 months): did not return; weight ([1]; complete course of 6 months): restored; blood tests ([1]; fourth week): normalized; decrease of pelvic bone metastases ([1]; over the 4-month course): 1.5 cm; use of narcotic analgesics by the patient ([1]; previously 5.0 ml of morphine three times a day): declined taking narcotic analgesics; pain in the area of metastases ([1]; sixth day, 20 drops of 1% solution by mouth and microclysters): got duller; pain in the area of metastases ([1]; tenth day): disappeared completely; blood tests ([2]; 4th week): normalized; return of pain ([2]; complete course of 6 months): did not return; weight ([2]; complete course of 6 months): restored; decrease of liver metastasis ([2]; during the 3-month course, baseline 4×5×4 cm): 1.5 cm; use of narcotics by the patient ([2]; fifth day after the start of treatment): declined taking narcotics; pain in the area of metastases ([2]; sixth day, injection under tumor, 2% ointment, intravenous, by mouth, microclysters): became duller; use of narcotic analgesics by the patient ([2]; stated after the tenth day, previously 3.0 ml of morphine four times a day): declined taking narcotic analgesics; pain in the area of metastases ([2]; tenth day): disappeared completely; pain (migraine): abated and has not recurred

Question: `CN(C)c1ccc(C(=C2C=CC(=[N+](C)C)C=C2)c2ccc(N(C)C)cc2)cc1` [crystal violet] was tested. Which pain syndrome ([3]; after 7 days of treatment) did it give?
Answer: disappeared

Question: What about the dyspnea ([3]; after 7 days, 16 drops of 1% solution by mouth three times a day and microclysters) of the same compound?
Answer: abated

Question: What about the pain ([3]; after the 12-month course) of the same compound?
Answer: No pain

Question: What about the weight ([3]; after the 12-month course) of the same compound?
Answer: restored

Question: What about the “right kidney tumor and lung metastases” value ([3]; during therapy, 1% suppositories and inhaling for 12 months with breaks) of the same compound?
Answer: disappeared

Question: What about the blood tests ([3]; over 3 weeks) of the same compound?
Answer: normalized

Question: How did the pain ([4]; after 3 days, 3 mg per 50 kg of weight two times a day) turn out when `CN(C)c1ccc(C(=C2C=CC(=[N+](C)C)C=C2)c2ccc(N(C)C)cc2)cc1` [gentian violet] was run?
Answer: abated significantly

Question: What about the return of pain ([4]; hereinafter) of the same compound?
Answer: has not returned

Question: And the pain ([4]; later than 3 days (then))?
Answer: stopped completely

Question: What about the pain (osteoarthrosis pain; after a week) of the same compound?
Answer: disappeared completely

Question: And the pain (osteoarthrosis pain; after three days, 0.0004 mg/kg of weight once a day)?
Answer: abated

Question: What about the brain metastases ([5]; after six months of treatment) of the same compound?
Answer: No brain metastases are observed

Question: And the dyspnea ([5]; after six months of treatment)?
Answer: abated

Question: What about the pain syndrome ([5]; after six months of treatment) of the same compound?
Answer: practically absent

Question: And the blood tests ([5]; against the background of treatment)?
Answer: normalized

Question: What about the “pain syndrome after the sessions” value ([5]; first week, for several hours after sessions, 1% solution by mouth, microclyster, suppository) of the same compound?
Answer: substantial improvement of the pain syndrome

Question: What about the “patient's condition” value ([5]; third week of treatment) of the same compound?
Answer: improved

Question: And the “MTS in the brain in CT” value ([5]; three months after start of treatment)?
Answer: no MTS in the brain were observed
